In patent US9220714B2, “Nitrofuran compounds for the treatment of cancer and angiogenesis” (WOMEN AND INFANTS HOSPITAL OF RHODE ISLAND, priority 2006, dated 2015):
≈ marks a conversion by molar mass, not a printed value. Read-outs that look alike come from different tables or passages of the source.

What was measured:
SMS-KCNR cells [1] = assay: cells; details: Homo sapiens
Method: (§1) Cell viability was assessed using the MTS assay as described in Materials and Methods and expressed as percent of vehicle treated control. The data represents the mean SSD of four replicates.
SMS-KCNR cells were pretreated with pancaspase inhibitor, Z-VAD-FMK. […] Cell viability was measured by MTS assay. The reversal of cytotoxicity by pancaspase inhibitor was determined by comparing the viability of riifurtimox treated cells in the presence or absence of the pancaspase inhibitor. The values are the Mean±SD of quadruplicates.
(§2) The human neuroblastoma cell lines IMR-32 (ATCC), SMS-KCN, SMS-KCNR (from John Maris, CHOP, Philadelphia, Pa.) were maintained in RPMI 1640 media supplemented with 10% fetal bovine serum, 100 units/ml penicillin and 100 μg/ml streptomycin at 37° C. in a humidified incubator. Cells were grown in 6 well plates or 100 mm dishes to 75% confluency and serum deprived (RPMI 1640 with 0.1% BSA) overnight before treatment.
(§3) Cell viability was measured using the CellTiter 96 AQ One Solution Cell Proliferation Assay kit (Promega, Madison Wis.)^4. […] Vehicle treated cells were used as control (0.001% DMSO). At the end of the incubation period, MTS reagent (3-(4,5-dimethylthiazol-2-yl)-5-(3-carboxymethoxyphenyl)-2-(4-sulfophenyl)-2H-tetrazolium)^12 was added to each well in fresh media to a final concentration of 0.5 mg/ml and incubated for 4 hours. Absorbance was measured at 490 nm using a microplate reader (Multiskan RC, Fisher Scientific Pittsburgh, Pa.). Cell viability is represented as the mean percentage+/−SD of absorbance before and after treatment.
Inactivation of caspases results in inhibition of caspase mediated apoptosis. […] The cell viability was measured by MTS assay.

IMR-32 cells = assay: cells; details: Homo sapiens
Method: as §1, §2, §3

SMS-KCN cells = assay: cells; details: Homo sapiens
Method: as §1, §2, §3

SMS-KCNR cells [2] = assay: cells; details: Homo sapiens, read-out: concentration giving 50% inhibition in DNA synthesis (BrdU incorporation)
Method: (§4) Cells were labeled with 10 μM BrdU for 6 hours. The cells were fixed and the color was developed using peroxidase conjugated anti-BrdU antibody and TMB (3,3′,5,5′-tetramethylbenzidine) chromogenic substrate. Absorbance was measured at 450 nm using a microplate reader (Multiskan RC, Fisher Scientific, Pittsburgh, Pa.). In this assay, the color intensity correlates directly to the amount of BrdU incorporation which in turn reflects proliferation.

[3] = tested on: Human Endothelial Cells (HEC); assay: cells; details: Endothelial cell, read-out: inhibition of DNA synthesis in HEC
Method: as §4
Human Endothelial Cells (HEC) (1×10^4 cells) were cultured in 96 well plates, serum deprived for 16 hours and treated with […], 1.25, 2.5, 5, 10 and 20 μg/ml in Medium 200 in the presence or absence of 50 ng/ml VEGF for 72 hours. BrdU (10 μM final concentration) was added to the cells and re-incubated for further 6 hours. The cells were fixed and the color was developed using anti-BrdU-POD antibody and TMB chromogenic substrate. The assay was performed according to the manufacturer's instructions. In this colorimetric cell proliferation assay, the color intensity correlates directly to the amount of BrdU incorporated into the DNA which in turn represents proliferation. The results are expressed as percentage BrdU incorporation.

Akt = details: SMS-KCNR
Method: as §2

caspase-3 = details: 1, 10 and 20 μg/ml, 24 hours
Method: as §2

SMS-KCNR cells [4] = details: 96 hours
Method: Vehicle treated cells were used as control.
Vehicle treated cells were used as control. […] The cells were washed with PBS, fixed with paraformaldehyde, permeabilized with Triton X-100 at room temperature, labeled with fluorescein-12-dUTP using terminal deoxynucleotidyl transferase and counterstained with propidium iodide (5 μg/ml). Negative controls (without terminal transferase) were included in each experiment. Apoptosis was detected by fluorescence microscopy (Nikon Eclipse TE2000-E fitted with a cooled CCD camera, Japan). Propidium iodide staining was used to detect both non-apoptotic and apoptotic cells and fluorescein staining was used to detect the apoptotic cells.

rat aortic rings = details: with growth factors, day 9
From the text: (A) Vehicle treated aorta without growth factor (B) Vehicle treated aorta with growth factor.
Matrigel bed mimics physiological extracellular matrix representing its natural composition and architecture. Due to these features, Matrigel enables several cell types, including endo-thelial cells, to maintain in culture their in vivo phenotype and 3-dimensional organization. Aortic arches were removed from euthanized rats and immediately transferred to a culture dish containing ice-cold serum-free media. The peri-aortic fibroadipose tissue was carefully removed with fine microdissection forceps and iridectomy scissors paying special attention not to damage the aortic wall. Aortic rings (1 mm thick) were sectioned and extensively rinsed in 5 consecutive washes of Medium 200. […] The explants were examined every second day with a Nikon Eclipse TS100 inverted microscope at an appropriate magnification and photographed at the end of 9th day. On the ninth day, the capillary sprouting were quantified by grading and recording the extent of sprouting directly reflecting angiogenesis using Nikon Eclipse TS100 fluorescent microscope (Japan) and Fuji digital camera.

neuroblastoma = details: for tumor marker VMA: initial VMA 22
From the text: Chagas disease is a parasitic disease caused by Trypanasoma cruzi endemic to South America.

ERK1/2 = details: SMS-KCNR, data not shown
SMS-KCNR cells [5] = details: 0-20 μg/ml, after 72 hours of treatment
SMS-KCNR cells [6] = details: 150 mg/kg/day in food pellets, 30 days, nude mice
sympathetic neurons = details: not seen in parasympathetic neurons or non-neuronal cells
HEC = assay: cells; details: Homo sapiens, 8 h, read-out: inhibition of tube formation
Method: Stimulation with growth factors leads to morphological differentiation of endothelial cells and formation of tube like structures on matrices. The endothelial tube formation assay was performed in Matrigel bed. Briefly, Matrigel bed was prepared by using pre-cooled pipettes, plates and tubes on ice. Growth factor-reduced Matrigel was thawed overnight at 4° C. and mixed to homogeneity, Culture plates (48-well) were coated with 0.1 ml of Matrigel and allowed to gelatinize at 37° C. for 30 minutes. […] Capillary networks were photographed using a phase-contrast microscope (Nikon Eclipse TS 100, fitted with Fuji digital camera, Japan), and the number of tubes was quantified by counting the branching points from four quadrants of each well.

normal epithelial cells = normal epithelial cells in culture; cited from earlier work
[7] = study of 67 children using nifurtimox for Chagas disease; cited from earlier work
[8] = 120 h, read-out: cell viability
[9] = read-out: IC50, concentration required to reach 50% inhibition of growth

For `CC1CS(=O)(=O)CCN1/N=C/c1ccc([N+](=O)[O-])o1` (stereo not drawn) [Nifurtimox], the cytotoxicity at 10 µg/mL (SMS-KCNR cells [1]; 96 h, read-out: decrease of cell viability compared to vehicle treated control) was 50%, the viability at 20 µg/mL (SMS-KCNR cells [1]; [8]) was 37% and the IC50 (SMS-KCNR cells [1]; [9]) was 14.7 µg/mL (≈ 51.2 µM). It also gave a viability at 10 µg/mL (SMS-KCNR cells [1]; read-out: cell viability with Z-VAD-FMK pretreatment) of 90%, a viability at 20 µg/mL (IMR-32 cells; IMR-32, 120 h, read-out: cell viability) of 78% and an IC50 (IMR-32 cells; IMR-32, read-out: IC50, concentration required to reach 50% inhibition of growth) of 52.9 µg/mL (≈ 184 µM). It also gave a viability at 20 µg/mL (SMS-KCN cells; [8]) of 59%, an IC50 (SMS-KCN cells; [9]) of 25.4 µg/mL (≈ 88.4 µM) and an IC50 (SMS-KCNR cells [2]) of 18.1 µg/mL (≈ 63 µM). The inhibition at 5 µg/mL [3] was 30%, the inhibition at 10 µg/mL [3] was 50% and the inhibition at 20 µg/mL [3] was greater than 80%. The “serum stimulated Akt phosphorylation” value (Akt; 1.0 and 10 μg/ml, in the presence of serum) was “completely inhibited”, the “BDNF stimulated Akt phosphorylation” value (Akt; 10 and 20 μg/ml, BDNF stimulation) was “significantly inhibited” and the “total Akt protein levels” value (Akt; BDNF stimulation) was “not altered”. For the same molecule, the “activation of caspase-3 (19 and 17 kDa bands)” value (caspase-3) was “dose dependent and strong activation”, the morphological alterations (SMS-KCNR cells [4]; 1 μg/ml) was “decrease in axon length was apparent” and the morphological alterations (SMS-KCNR cells [4]; 10 μg/ml) was “the decrease in axon length was more prominent and was associated with rounding of cells”. The morphological alterations (SMS-KCNR cells [4]; 20 μg/ml) was “rounded up and floating”, the “micro-vascular sprouting of aortic rings” value (rat aortic rings; 20 μg/ml) was “complete inhibition of micro-vascular sprouting” and the “capillary network of aortic rings” value (rat aortic rings; 1 and 10 μg/ml) was “sparse and incomplete”. For the same molecule, the tumor response (neuroblastoma; Patient A, after four months, with cyclophosphamide and topotecan) was “significant and continuous tumor regression”, the tumor response (neuroblastoma; Patient A, after two weeks, Nifurtimox alone) was “tumor stabilization” and the tumor markers (neuroblastoma; Patient B, after two months, with ascorbic acid, cyclophosphamide and topotecan) was “normalization of tumor markers”. The “tumor marker VMA” value (neuroblastoma; Patient C, Day 21, before ascorbic acid) was 17, the “bone marrow tumor status” value (neuroblastoma; Patient C, Day 21, initially positive for tumor) was “negative” and the “tumor marker VMA” value (neuroblastoma; Patient C, after 3 cycles of treatment) was 13. For the same molecule, the tumor response (neuroblastoma; patient with Chagas disease, 15-20 mg/kg/day oral, with cyclophosphamide and topotecan) was “tumor subsequently regressed”, the “tumor response after relapse” value (neuroblastoma; same patient restarted on nifurtimox, cyclophosphamide and topotecan) was “again demonstrated tumor regression” and the tumor response (neuroblastoma; three patients with relapsed neuroblastoma, 20 mg/kg/day, alone or in combination) was “tumor regression”. The “phosphorylation of ERK1/2” value (ERK1/2) was “not affected”, the “apoptosis (TUNEL positive nuclei)” value (SMS-KCNR cells [5]) was “dose dependent increase in apoptosis” and the “decrease in tumor size versus untreated” value (SMS-KCNR cells [6]) was “greater than three fold decrease”. For the same molecule, the tumor size (SMS-KCNR cells [6]) was 0.3 grams, the “cytotoxicity after pretreatment with AMPT (tyrosine hydroxylase inhibitor)” value (neuroblastoma cell lines) was “reduction of cytotoxicity” and the “sensitivity of sympathetic neurons to nifurtimox” value (sympathetic neurons) was “enhanced sensitivity”. The inhibition at 20 µg/mL (HEC) was 50%, the “cytotoxic effects on normal epithelial cells” value (normal epithelial cells) was “not observed” and the “tolerability in children versus adults” value [7] was “much better tolerated in children”.
